The values that follow come from the NIST ThermoML archive (doi:10.1016/j.fluid.2010.03.010).

Numbers after ± are expanded uncertainties.

A short description of the data set: molar heat capacity at constant pressure. Particulars: 101.33 kPa, Liquid, Differential Scanning Calorimetry. (In general: Differential scanning calorimetry records heat flow against a reference as temperature is scanned.)

Regarding `CCCC[n+]1ccn(C)c1.O=S(=O)([N-]S(=O)(=O)C(F)(F)F)C(F)(F)F`, the “molar heat capacity at constant pressure” value was 573.13 ± 17 J/K/mol (308.16 K); 575.92 ± 17 J/K/mol (313.16 K); 577.32 ± 17 J/K/mol (318.16 K); 581.51 ± 17 J/K/mol (323.16 K); 584.31 ± 18 J/K/mol (328.22 K); 588.5 ± 18 J/K/mol (333.22 K). The “molar heat capacity at constant pressure” value reads like this: (338.19 K) 588.5 ± 18 J/K/mol; (343.18 K) 592.7 ± 18 J/K/mol; (348.25 K) 595.49 ± 18 J/K/mol; (353.18 K) 596.89 ± 18 J/K/mol; (358.25 K) 599.68 ± 18 J/K/mol; (363.18 K) 602.48 ± 18 J/K/mol.
Turning to `CCCCn1cc[n+](C)c1.N#CN=C=[N-]` [1-butyl-3-methylimidazolium dicyanamide], the “molar heat capacity at constant pressure” value worked out at 381.78 ± 11 J/K/mol (308.16 K); 384.86 ± 12 J/K/mol (313.16 K); 382.81 ± 11 J/K/mol (318.16 K); 386.92 ± 12 J/K/mol (323.16 K); 386.92 ± 12 J/K/mol (328.22 K); 388.97 ± 12 J/K/mol (333.22 K). Besides, the “molar heat capacity at constant pressure” value is, setting by setting: (338.19 K) 391.02 ± 12 J/K/mol; (343.18 K) 392.05 ± 12 J/K/mol; (348.25 K) 394.1 ± 12 J/K/mol; (353.18 K) 395.13 ± 12 J/K/mol; (358.25 K) 396.15 ± 12 J/K/mol; (363.18 K) 399.23 ± 12 J/K/mol.
`CCOS(=O)(=O)[O-].CCn1cc[n+](C)c1` [1-ethyl-3-methylimidazolium ethyl sulfate]: the “molar heat capacity at constant pressure” value reads like this: (308.16 K) 393.42 ± 12 J/K/mol; (313.16 K) 396.97 ± 12 J/K/mol; (318.16 K) 399.33 ± 12 J/K/mol; (323.16 K) 402.06 ± 12 J/K/mol; (328.22 K) 405.24 ± 12 J/K/mol; (333.22 K) 406.42 ± 12 J/K/mol. Further, the “molar heat capacity at constant pressure” value was 408.78 ± 12 J/K/mol (338.19 K); 411.14 ± 12 J/K/mol (343.18 K); 414.69 ± 12 J/K/mol (348.25 K); 415.87 ± 12 J/K/mol (353.18 K); 418.23 ± 13 J/K/mol (358.25 K); 420.6 ± 13 J/K/mol (363.18 K).
